# Entries after “also recorded” stand apart in the source; their conditions may differ.
# Experiments:
# claudin-3 [1] = test: Western blot of serum claudin-3 after hemorrhagic shock; format: in vivo; settings: rat serum, 1 hour following VPA treatment; two bands seen in HS 1 hour group
# Method: To assess whether claudin-3 is a potential biomarker, independent serum samples were taken of sham (no hemorrhage and no treatment), HS 1 hour (1 hour following hemorrhagic shock), and VPA 1 hour (1 hour following VPA treatment) from individual rats and the level of the candidate biomarker was determined by Western blot with anti-claudin-3 antibody. […]
# claudin-3 [2] = test: Western blot of intestinal claudin-3 protein after hemorrhagic shock; format: in vivo; settings: rat intestine, 1, 6, and 24 hours after VPA treatment
# Method: (§1) An animal model of HS was used. Male Wistar-Kyoto rats (254.12±2.71 grams, Harlan, Indianapolis, Ind.) were used in the lethal model of hemorrhagic shock (Shults et al., J Trauma 2008; 64(3):629-638). Each animal's estimated blood volume was calculated using the formula: [estimated blood volume (mL)=weight (g)×0.06 (mL/g)+0.77]. About 1.3 mL of blood was manually drawn at the beginning and end of hemorrhage for analysis (included in the total hemorrhage calculation). The animals were hemorrhaged (40% of their calculated total blood volume) via a femoral arterial catheter over 10 minutes, followed by a 20% blood volume venous bleed over the next 50 minutes. Bleeding was performed using Kent Scientific adjustable pumps (Kent Scientific Corporation, N.J.). VPA (300 mg/kg) was administered via a femoral vein catheter after completion of hemorrhage. Blood pressure was monitored continuously during the experiment. […]
# Claudin-3 is a TJ protein that has important roles in establishing epithelial and endothelial barriers. To find out whether HS and VPA treatment affect claudin-3 protein in TJ of epithelial cells, protein expression was analyzed in intestinal tissue obtained from sham, HS 1 hour (1 hour after hemorrhagic shock), and VPA-treated animals (1 hour, 6 hours, and 24 hours after treatment). […]
# CINC-1 [3] = test: Serum CINC-1, multiplex electrochemiluminescence assay, sub-lethal hemorrhagic shock; format: in vivo; settings: rat, 40% blood volume hemorrhage, VPA 300 mg/kg IV vs vehicle
# Method: (§2) Anesthetized Wistar-Kyoto rats (250-300 g) underwent 40% blood volume hemorrhage over 10 minutes followed by 30 minutes of un-resuscitated shock and were treated with 1) VPA 300 mg/kg or 2) vehicle control. Blood samples were obtained at baseline, following shock, and prior to sacrifice (1 hour, 4 hours, and 20 hours; n=3-4/time point/group). Serum samples were screened for possible biomarkers using a multiplex electrochemiluminescence detection assay, and results were confirmed using ELISA. Additionally, lung tissue lysate was examined for chemokine and myeloperoxidase (MPO) levels as markers for neutrophil infiltration and ALI. Additionally, lung CINC-1 (a chemokine belonging to the IL-8 family that promotes neutrophil chemotaxis) mRNA levels were measured by real-time PCR.
# Animals were hemorrhaged 40% of their total blood volume to induce sub-lethal HS, and were sacrificed at 1, 4, and 20 hours following hemorrhage and treatment. This degree of blood loss was selected to allow 100% of animals in all groups to survive until the designated time of sacrifice. Selected laboratory values were measured, and were indicative of moderate HS (mean lactate 0.6 mmol/L at baseline, 4.3 mmol/L after hemorrhage; mean baseline hemoglobin 12.0 g/dL at baseline, 9.6 g/dL after hemorrhage). […]
# hemorrhagic shock [4] = settings: rats, literature (Shults et al. 2008; Li et al. 2008; WO 2007117272); cited from earlier work
# acute lung injury = test: Acute lung injury (ALI) following hemorrhagic shock; format: in vivo; settings: rat, 40% blood volume hemorrhage, VPA 300 mg/kg
# CINC-1 [5] = test: Lung tissue CINC-1 ELISA, sub-lethal hemorrhagic shock; format: in vivo; settings: rat, 40% blood volume hemorrhage, VPA 300 mg/kg IV vs vehicle, 20 hour time point, p=0.17
# Method: as §2
# (§3) Animals were hemorrhaged 40% of their total blood volume to induce sub-lethal HS, and were sacrificed at 1, 4, and 20 hours following hemorrhage and treatment. This degree of blood loss was selected to allow 100% of animals in all groups to survive until the designated time of sacrifice. Selected laboratory values were measured, and were indicative of moderate HS (mean lactate 0.6 mmol/L at baseline, 4.3 mmol/L after hemorrhage; mean baseline hemoglobin 12.0 g/dL at baseline, 9.6 g/dL after hemorrhage).
# ELISA was used to measure CINC-1 levels in lung whole tissue extract (n=3-4/time point/group).
# 22.7 kDa serum protein = test: SELDI-TOF MS serum protein profiling in lethal hemorrhagic shock model; format: in vivo; settings: rat, 60% blood loss, VPA 300 mg/kg via femoral vein, 24 hours after treatment
# Method: as §1, with “experiment. The mean arterial pressure (MAP) in animals that were subjected to hemorrhage dropped sharply after bleeding to approximately 20 mm Hg.” for “experiment.”
# ProteinChip profiling was performed on CM10 ProteinChip arrays (Ciphergen Biosystems, Fremont Calif.), as recommended by the manufacturer. […] The arrays were then inserted into a ProteinChip (Enterprise edition) TOF-MS and read at an optimized laser setting of 2000 nJ-5000 nJ. […]
# hemorrhagic shock [6] = test: Survival in lethal model of hemorrhagic shock; format: in vivo; settings: rat, HS 60% blood loss, VPA 300 mg/kg; untreated animals did not survive
# Method: as §1, with “experiment. The mean arterial pressure (MAP) in animals that were subjected to hemorrhage dropped sharply after bleeding to approximately 20 mm Hg.” for “experiment.”
# Male Wistar-Kyoto rats underwent HS (60% blood loss) followed by treatment with or without VPA (300 mg/kg). Serum samples were obtained at baseline (BL), end of hemorrhage (EH), and after VPA treatment (VPA), and subjected to iTRAQ and analyzed by liquid chromatography-tandem mass spectrometry (LC-MS/MS). […]
# myeloperoxidase (MPO) = test: Lung tissue myeloperoxidase (MPO) level, sub-lethal hemorrhagic shock; format: in vivo; settings: rat, 40% blood volume hemorrhage, VPA 300 mg/kg IV vs vehicle, 20 hour time point, p<0.05
# Method: as §2
# (§4) Animals were hemorrhaged 40% of their total blood volume to induce sub-lethal HS, and were sacrificed at 1, 4, and 20 hours following hemorrhage and treatment. […] Selected laboratory values were measured, and were indicative of moderate HS (mean lactate 0.6 mmol/L at baseline, 4.3 mmol/L after hemorrhage; mean baseline hemoglobin 12.0 g/dL at baseline, 9.6 g/dL after hemorrhage).
# Myeloperoxidase (MPO) levels were measured in lung whole tissue extract as a marker for neutrophil infiltration (n=3-4/time point/group).
# CINC-1 [7] = test: Serum CINC-1 ELISA, sub-lethal hemorrhagic shock; format: in vivo; settings: rat, 40% blood volume hemorrhage, VPA 300 mg/kg IV vs vehicle, 4 hours, p<0.05
# Method: as §2, §3
# Conventional ELISA was used to confirm the data obtained using the multiplex electrochemiluminescence assay.
# claudin-3 [8] = test: iTRAQ quantification of claudin-3 peptide in serum after hemorrhagic shock; format: in vivo; settings: rat serum, 24 hours post-VPA 300 mg/kg; BL to HS ratio 0.323
# Method: as §1, with “experiment. The mean arterial pressure (MAP) in animals that were subjected to hemorrhage dropped sharply after bleeding to approximately 20 mm Hg.” for “experiment.”
# Immunodepletion of serum abundant proteins was performed as follows. […] Column performance was monitored by sodium dodecyl sulphate-polyacrylamide gel electrophoresis (SDS-PAGE) followed by Coomassie Blue staining (BioBlue, BioRad). […]
# CINC-1 mRNA = test: Lung CINC-1 mRNA by real-time PCR, sub-lethal hemorrhagic shock; format: in vivo; settings: rat, 40% blood volume hemorrhage, VPA 300 mg/kg IV vs vehicle, 1, 4 and 20 hours
# Method: as §2, §4
# To rule out possibility that an increase of CINC-1 protein in lung results from induction of the gene expression, lung tissue was assessed for CINC-1 mRNA levels (n=3-4/time point/group). […]
# claudin-3 mRNA = test: RT-PCR of intestinal claudin-3 mRNA after hemorrhagic shock; format: in vivo; settings: rat intestine, 1, 6 and 24 hours
# Method: To assess whether gene expression of claudin-3 responds to HS and VPA treatment, the mRNA expression of rat intestines among the groups of sham, HS and VPA treatment was compared at 1, 6 and 24 hours using RT-PCR methods.
compound,measurement,setting,value
"CCCC(CCC)C(=O)O [VPA, Valproic acid]",serum claudin-3 by Western blot,claudin-3 [1],no claudin-3 was detected
same,intestinal claudin-3 protein level by Western blot,claudin-3 [2],significantly attenuated the HS-induced reduction of claudin-3
same,HS-induced rise of serum CINC-1 (multiplex electrochemiluminescence assay),CINC-1 [3],appeared to be attenuated
same,survival after lethal HS,hemorrhagic shock [4],improves survival
same,development of ALI after hemorrhage,acute lung injury,inhibited and reduced
same,effects on lung CINC-1 levels,CINC-1 [5],not statistically significant
same,serum level of 22.7 kDa protein (SELDI-TOF MS) versus HS,22.7 kDa serum protein,down-regulated
same,survival after hemorrhagic shock,hemorrhagic shock [6],significantly improved survival; also recorded: survived
same,HS-induced increase of lung MPO levels,myeloperoxidase (MPO),significantly attenuated this effect
same,HS-induced increase of circulating CINC-1 (ELISA),CINC-1 [7],significantly attenuated this effect
same,"ratio of VPA to HS, claudin-3 peptide isobaric tag signal in serum",claudin-3 [8],0.425
same,lung CINC-1 mRNA levels,CINC-1 mRNA,no significant changes between groups
same,intestinal claudin-3 mRNA expression,claudin-3 mRNA,did not significantly change
